In patent US4965269A, “Therapeutically active chloro substituted benzimidazoles” (AB Hassle, priority 1989, dated 1990):

Assay: Chemical stability in aqueous buffer solution
Assay type: physicochemical
Conditions: pH 2, 37° C., time after which 10% of the original compound has decomposed
Protocol: The chemical stability of the compounds of the invention has been followed kinetically at low concentration at 37° C. in aqueous buffer solution at different pH values. The results in Table 3 show the half life (t 1/2) at pH 7, that is the time period after which half the amount of the original compound remains unchanged, and t10 % at pH 2, that is the time period after which 10% of the original compound has decomposed.

Row | Chemical Stability at pH 2, t 10% [h] | SMILES
1 | 14 | COc1ccnc(C[S+]([O-])c2nc3cc(Cl)ccc3n2COC(=O)OCc2ccccc2)c1OC (stereo not shown) [Example 1, 5-chloro-2-[[(3,4-dimethoxy-2-pyridinyl)methyl]sulfinyl]-1H-benzimidazole-1-ylmethyl benzyl carbonate]
2 | 27 | COc1ccnc(C[S+]([O-])c2nc3ccc(Cl)cc3n2COC(=O)OCc2ccccc2)c1OC (stereo not shown) [Example 2, 6-chloro-2-[[(3,4-dimethoxy-2-pyridinyl)methyl]sulfinyl]-1H-benzimidazole-1-ylmethyl benzyl carbonate]
3 | 21 | CCCCOC(=O)OCn1c([S+]([O-])Cc2nccc(OC)c2OC)nc2cc(Cl)ccc21 (stereo not shown) [Example 3, 5-chloro-2-[[(3,4-dimethoxy-2-pyridinyl)methyl]sulfinyl]-1H-benzimidazole-1-ylmethyl butyl carbonate]
4 | 42 | CCCCOC(=O)OCn1c([S+]([O-])Cc2nccc(OC)c2OC)nc2ccc(Cl)cc21 (stereo not shown) [Example 4, 6-chloro-2[[(3,4-dimethoxy-2pyridinyl)methyl]sulfinyl]-1H-benzimidazole-1-ylmethyl butyl carbonate]
